PubChem BioAssay AID248 (DTP/NCI, 2004)
“And” between values parts separate entries of the source, which are not always exact repeats. Identical values can stand only once. Inconclusive results and toxic doses are left out. Rule as the data show it: active = T/C of 150% or more; inactive = T/C below 125%.

Tested on: L1210 leukemia ip in BDF1 mice, survival T/C
Experiment: NCI In Vivo Anticancer Drug Screen. Data for tumor model L1210 Leukemia (intraperitoneal) in B6D2F1 (BDF1) mice
Conditions: endpoint: mean survival time, higher = longer survival
Summary of the method: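 Value reflects the ratio of survival in compound-treated mice to survival in vehicle-treated controls, with both groups carrying the same transplanted tumor.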

[1] = dose: 100.0 mg/kg/injection, schedule: Q01DX009 (ip), vehicle: Klucel (hydroxypropylcellulose) (HPC)
[2] = dose: 100.0 mg/kg/injection, schedule: Q04DX002 (ip), vehicle: Klucel (hydroxypropylcellulose) (HPC)
[3] = dose: 200.0 mg/kg/injection, schedule: Q01DX009 (ip), vehicle: Klucel (hydroxypropylcellulose) (HPC)
[4] = dose: 200.0 mg/kg/injection, schedule: Q04DX002 (ip), vehicle: Klucel (hydroxypropylcellulose) (HPC)
[5] = dose: 400.0 mg/kg/injection, schedule: Q04DX002 (ip), vehicle: Klucel (hydroxypropylcellulose) (HPC)
[6] = dose: 100.0 mg/kg/injection, schedule: Q01DX009 (ip), vehicle: saline with Tween-80
[7] = dose: 200.0 mg/kg/injection, schedule: Q01DX009 (ip), vehicle: saline with Tween-80
[8] = dose: 100.0 mg/kg/injection, schedule: Q04DX003 (ip), vehicle: Klucel (hydroxypropylcellulose) (HPC)
[9] = dose: 200.0 mg/kg/injection, schedule: Q04DX003 (ip), vehicle: Klucel (hydroxypropylcellulose) (HPC)
[10] = dose: 400.0 mg/kg/injection, schedule: Q01DX009 (ip), vehicle: Klucel (hydroxypropylcellulose) (HPC)
[11] = dose: 400.0 mg/kg/injection, schedule: Q04DX003 (ip), vehicle: Klucel (hydroxypropylcellulose) (HPC)
[12] = dose: 100.0 mg/kg/injection, schedule: Q01DX001 (ip), vehicle: saline
[13] = dose: 200.0 mg/kg/injection, schedule: Q01DX001 (ip), vehicle: saline
[14] = dose: 400.0 mg/kg/injection, schedule: Q01DX001 (ip), vehicle: saline
[15] = dose: 100.0 mg/kg/injection, schedule: Q04DX002 (ip), vehicle: saline with Tween-80
[16] = dose: 200.0 mg/kg/injection, schedule: Q04DX002 (ip), vehicle: saline with Tween-80
[17] = dose: 100.0 mg/kg/injection, schedule: Q01DX009 (ip), vehicle: saline
[18] = dose: 6.25 mg/kg/injection, schedule: Q01DX009 (ip), vehicle: saline with Tween-80
[19] = dose: 12.5 mg/kg/injection, schedule: Q01DX009 (ip), vehicle: saline with Tween-80
[20] = dose: 400.0 mg/kg/injection, schedule: Q04DX002 (ip), vehicle: saline with Tween-80
[21] = dose: 12.5 mg/kg/injection, schedule: Q01DX009 (ip), vehicle: saline
[22] = dose: 25.0 mg/kg/injection, schedule: Q01DX009 (ip), vehicle: saline
[23] = dose: 50.0 mg/kg/injection, schedule: Q01DX009 (ip), vehicle: saline

Measured: T/C

Cc1c(Cl)cccc1NC(=O)N1CCN(C)CC1
inactive: [1] 98 % of control and 107 % of control | [2] 106 % of control and 91 % of control | [3] 109 % of control and 92 % of control | [4] 101 % of control and 91 % of control | [5] 110 % of control and 90 % of control

N=C(N=C(N)N)N1CCOCC1
inactive: [6] 101 % of control | dose: 100.0 mg/kg/injection, schedule: Q04DX003 (ip), vehicle: saline with Tween-80 105 % of control | [7] 98 % of control | dose: 200.0 mg/kg/injection, schedule: Q04DX003 (ip), vehicle: saline with Tween-80 112 % of control | dose: 400.0 mg/kg/injection, schedule: Q01DX009 (ip), vehicle: saline with Tween-80 103 % of control | dose: 400.0 mg/kg/injection, schedule: Q04DX003 (ip), vehicle: saline with Tween-80 104 % of control

O=C1NC(c2ccccc2)(c2ccccc2)C(=O)N1SC(Cl)(Cl)Cl
inactive: dose: 25.0 mg/kg/injection, schedule: Q04DX002 (ip), vehicle: Klucel (hydroxypropylcellulose) (HPC) 100 % of control | dose: 50.0 mg/kg/injection, schedule: Q04DX002 (ip), vehicle: Klucel (hydroxypropylcellulose) (HPC) 118 % of control

CC1OCC2OC(C)OC(C(COC(=O)c3ccc([N+](=O)[O-])cc3)OS(C)(=O)=O)C2O1 (configuration not stated)
inactive: [1] 113 % of control | [8] 102 % of control | [3] 108 % of control | [9] 104 % of control | [10] 92 % of control | [11] 96 % of control

C#CC1(NC(=S)Nc2cccc(OC)c2)CCCCC1
inactive: [2] 94 % of control | [4] 109 % of control | [5] 96 % of control

O=C1OC2CCC3C1C3C2Br (configuration not stated)
inactive: dose: 25.0 mg/kg/injection, schedule: Q01DX009 (ip), vehicle: acetone 92 % of control

CCCCOC(=O)c1ccc(NC(=O)Nc2cc(C(F)(F)F)ccc2Cl)cc1
inactive: [1] 107 % of control | [3] 113 % of control | [10] 94 % of control

O=C(Nc1nc2ccccc2[nH]1)C(F)(F)F
inactive: [12] 97 % of control | [13] 100 % of control | [14] 97 % of control

Cn1nc(SCc2ccccc2)c(N)nc1=O
inactive: [12] 102 % of control | [13] 100 % of control | [14] 101 % of control

CCCN(CCC)C(=S)CC
inactive: [15] 94 % of control | [16] 98 % of control

CC1CNC(=O)N1 (configuration not stated)
inactive: dose: 100.0 mg/kg/injection, schedule: Q04DX003 (ip), vehicle: saline 102 % of control | dose: 200.0 mg/kg/injection, schedule: Q04DX003 (ip), vehicle: saline 101 % of control | dose: 222.0 mg/kg/injection, schedule: Q01DX Z (ip), vehicle: saline 97 % of control | dose: 333.0 mg/kg/injection, schedule: Q01DX Z (ip), vehicle: saline 111 % of control | dose: 400.0 mg/kg/injection, schedule: Q04DX003 (ip), vehicle: saline 96 % of control | dose: 500.0 mg/kg/injection, schedule: Q01DX Z (ip), vehicle: saline 103 % of control

O=C(NCC(O)CNC(=O)Nc1ccc(C2=NCC(O)CN2)cc1)Nc1ccc(C2=NCC(O)CN2)cc1 (configuration not stated)
inactive: dose: 25.0 mg/kg/injection, schedule: Q01DX Z (ip), vehicle: carboxymethylcellulose (CMC) 100 % of control | dose: 50.0 mg/kg/injection, schedule: Q01DX Z (ip), vehicle: carboxymethylcellulose (CMC) 108 % of control | dose: 100.0 mg/kg/injection, schedule: Q01DX Z (ip), vehicle: carboxymethylcellulose (CMC) 121 % of control

COc1ccc2c(c1C)C(=O)c1ccccc1C2
inactive: dose: 100.0 mg/kg/injection, schedule: Q01DX001 (ip), vehicle: saline with Tween-80 93 % of control | dose: 200.0 mg/kg/injection, schedule: Q01DX001 (ip), vehicle: saline with Tween-80 101 % of control | dose: 400.0 mg/kg/injection, schedule: Q01DX001 (ip), vehicle: saline with Tween-80 90 % of control

O=C(O)C(CCc1ccccc1)(CCc1ccccc1)C(=O)O
inactive: [17] 95 % of control | dose: 200.0 mg/kg/injection, schedule: Q01DX009 (ip), vehicle: saline 94 % of control | dose: 400.0 mg/kg/injection, schedule: Q01DX009 (ip), vehicle: saline 111 % of control

O=C(CCl)c1ccc[nH]1
inactive: dose: 50.0 mg/kg/injection, schedule: Q01DX015 (ip), vehicle: carboxymethylcellulose (CMC) 93 % of control | dose: 75.0 mg/kg/injection, schedule: Q01DX001 (ip), vehicle: carboxymethylcellulose (CMC) 93 % of control | dose: 100.0 mg/kg/injection, schedule: Q01DX015 (ip), vehicle: carboxymethylcellulose (CMC) 93 % of control

CC(C)CNC(=O)Cc1ccc(N(CCCl)CCCl)cc1
inactive: [8] 108 % of control | [9] 108 % of control | [11] 112 % of control

c1ccc(-c2ccno2)cc1
inactive: [18] 98 % of control | [19] 106 % of control | dose: 25.0 mg/kg/injection, schedule: Q01DX009 (ip), vehicle: saline with Tween-80 107 % of control | dose: 75.0 mg/kg/injection, schedule: Q01DX009 (ip), vehicle: saline with Tween-80 90 % of control

O=C(Nc1cccc(F)c1)Nc1ccc(C(=O)O)c(O)c1
inactive: [6] 91 % of control | [7] 95 % of control

CCCCc1cn(S(=O)(=O)c2ccc(C)cc2)nn1
inactive: [15] 106 % of control | [16] 100 % of control | [20] 106 % of control

O=C(O)/C=C/c1nc2ccccc2nc1-c1ccccc1
inactive: [2] 101 % of control | [4] 113 % of control | [5] 101 % of control

Cc1cc(Br)cc(C(=O)Cl)c1O
inactive: [15] 92 % of control | [16] 96 % of control | [20] 100 % of control

O=C(O)c1cccc(CCc2ccccc2)c1
inactive: dose: 100.0 mg/kg/injection, schedule: Q01DX001 (ip), vehicle: Klucel (hydroxypropylcellulose) (HPC) 102 % of control | dose: 200.0 mg/kg/injection, schedule: Q01DX001 (ip), vehicle: Klucel (hydroxypropylcellulose) (HPC) 100 % of control

C[P+]1(C)CC2OC2C1 (configuration not stated)
inactive: [21] 91 % of control | [22] 102 % of control | [23] 94 % of control | [17] 91 % of control

CC(C)c1ccc(/C=N/NC(=O)C[n+]2ccccc2)cc1
inactive: [21] 100 % of control | [22] 105 % of control | [23] 94 % of control

NC(N)=NC(=O)COc1ccc(Cl)cc1Cl
inactive: dose: 100.0 mg/kg/injection, schedule: Q04DX002 (ip), vehicle: saline + alcohol 100 % of control | dose: 200.0 mg/kg/injection, schedule: Q04DX002 (ip), vehicle: saline + alcohol 107 % of control

O=c1cc(CBr)c2ccccc2[nH]1
inactive: dose: 5.0 mg/kg/injection, schedule: Q01DX001 (ip), vehicle: saline 100 % of control | [18] 105 % of control | dose: 10.0 mg/kg/injection, schedule: Q01DX001 (ip), vehicle: saline 94 % of control | [19] 90 % of control | dose: 20.0 mg/kg/injection, schedule: Q01DX001 (ip), vehicle: saline 100 % of control | dose: 40.0 mg/kg/injection, schedule: Q01DX001 (ip), vehicle: saline 103 % of control | dose: 80.0 mg/kg/injection, schedule: Q01DX001 (ip), vehicle: saline 97 % of control

O=C1C(=O)c2ccccc2C(O)=C1Nc1ccc(Cl)cc1
inactive: [12] 94 % of control | [13] 93 % of control | [14] 93 % of control

CC1(C)C2CCC(CCOC(=O)COc3ccc(Cl)cc3)C1C2 (configuration not stated)
inactive: [8] 98 % of control | [9] 100 % of control | [11] 100 % of control

O=C(O)c1oc(Br)cc1Br
inactive: dose: 12.5 mg/kg/injection, schedule: Q04DX003 (ip), vehicle: other 96 % of control | dose: 25.0 mg/kg/injection, schedule: Q04DX003 (ip), vehicle: other 102 % of control | dose: 50.0 mg/kg/injection, schedule: Q04DX003 (ip), vehicle: other 101 % of control
